# Tested on: MV-4-11 cells
# Experiment: Cell Viability Assay in MV-4-11 Cells
# Format: cell-based
# Settings: Homo sapiens, MV4-11, 72 h, MV-4-11 cells, 72 h, Cell-Titer Glo; read-out: IC50
# Procedure, shortened: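 Luminescent ATP read-out (CellTiter-Glo) after 72 h compound treatment of MV-4-11 leukaemia cells (7,000 per well, IMDM plus 10% FBS). Values expressed relative to DMSO control and derived by four-parameter non-linear regression.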
row,Structure (SMILES),IC50 [nM]
1,"Cc1cccc2ccnc(N(C(=O)c3ccc(C#N)cc3-c3ccn[nH]3)[C@@H]3CCCNC3)c12 [Example 333, 4-cyano-N-(8-methyl-1-isoquinolyl)-N-[(3R)-3-piperidyl]-2-(1H-pyrazol-5-yl)benzamide]",> 10000
2,"Cn1cc(-c2ccc(C(=O)N(c3nccc4scc(Cl)c34)[C@@H]3CCCNC3)c(F)c2)nn1 [Example 795, (R)—N-(3-chlorothieno[3,2-c]pyridin-4-yl)-2-fluoro-4-(1-methyl-1H-1,2,3-triazol-4-yl)-N-(piperidin-3-yl)benzamide]",130
3,"Cn1cc(-c2ccc(C(=O)N(c3nccc4sc(-c5ccc(C(N)=O)cc5)cc34)[C@@H]3CCCNC3)c(F)c2)nn1 [Example 840, N-[2-(4-carbamoylphenyl)thieno[3,2-c]pyridin-4-yl]-2-fluoro-4-(1-methyltriazol-4-yl)-N-[(3R)-3-piperidyl] benzamide]",1200
4,"Cn1cc(-c2ccc(C(=O)N(c3nccc4cc(-c5cnn(CCO)c5)ccc34)[C@@H]3CCCNC3)c(F)c2)nn1 [Example 492, (R)-2-fluoro-N-(6-(1-(2-hydroxyethyl)-1H-pyrazol-4-yl)isoquinolin-1-yl)-4-(1-methyl-1H-1,2,3-triazol-4-yl)-N-(piperidin-3-yl)benzamide]",870
5,"Nc1c(F)cc(-c2cc3c(N(C(=O)c4ccc(-n5nnc6cccnc65)cc4F)[C@@H]4CCCNC4)nccc3s2)cc1F [Example 565, N-[2-(4-amino-3,5-difluoro-phenyl)thieno[3,2-c]pyridin-4-yl]-2-fluoro-N-[(3R)-3-piperidyl]-4-(triazolo[4,5-b]pyridin-3-yl)benzamide]",230
6,"Cn1cc(-c2ccc(C(=O)N(c3nccc4cccc(CCc5cccnc5)c34)[C@@H]3CCCNC3)cc2)nn1 [Example 403, 4-(1-methyltriazol-4-yl)-N-[(3R)-3-piperidyl]-N-[8-[2-(3-pyridyl)ethyl]-1-isoquinolyl]benzamide]",2100
7,"Cn1cc(-c2ccc(C(=O)N(c3nccc4cccc(/C=C/c5cn[nH]c5)c34)[C@@H]3CCCNC3)cc2)nn1 [Example 348, (R,E)-N-(8-(2-(1H-pyrazol-4-yl)vinyl)isoquinolin-1-yl)-4-(1-methyl-1H-1,2,3-triazol-4-yl)-N-(piperidin-3-yl)benzamide]",460
8,"Cn1cc(-c2ccc(C(=O)N(c3nccc4cc(-c5cccc(O)c5)ccc34)[C@@H]3CCCNC3)c(F)c2)nn1 [Example 495, (R)-2-fluoro-N-(6-(3-hydroxyphenyl)isoquinolin-1-yl)-4-(1-methyl-1H-1,2,3-triazol-4-yl)-N-(piperidin-3-yl)benzamide]",660
9,"Cc1nnc(-c2ccc(C(=O)N(c3nccc4cccc(C)c34)[C@@H]3CCCNC3)cc2)s1 [Example 792, (R)-4-(5-methyl-1,3,4-thiadiazol-2-yl)-N-(8-methylisoquinolin-1-yl)-N-(piperidin-3-yl) benzamide]",160
10,"O=C(c1ccc(-n2nnc3cccnc32)cc1F)N(c1nccc2sc(C3CC3)cc12)[C@@H]1CCCNC1 [Example 740, (R)-4-(3H-[1,2,3]triazolo[4,5-b]pyridin-3-yl)-N-(2-cyclopropylthieno[3,2-c]pyridin-4-yl)-2-fluoro-N-(piperidin-3-yl)benzamide]",600
11,"NC(=O)c1ccc2c(N(C(=O)c3ccc(-n4nnc5cccnc54)cc3F)[C@@H]3CCCNC3)nccc2c1 [Example 453, (R)-1-(4-(3H-[1,2,3]triazolo[4,5-b]pyridin-3-yl)-2-fluoro-N-(piperidin-3-yl)benzamido)isoquinoline-6-carboxamide]",200
12,"O=C(c1ccc(-n2nnc3cccnc32)cc1F)N(c1nccc2sc(CCc3ccncc3)cc12)[C@@H]1CCCNC1 [Example 503, 2-fluoro-N-[(3R)-3-piperidyl]-N-[2-[2-(4-pyridyl)ethyl]thieno[3,2-c]pyridin-4-yl]-4-(triazolo[4,5-b]pyridin-3-yl)benzamide]",2300
13,"Cc1cc(-c2ccc(C(=O)N(c3nccc4scc(C)c34)[C@@H]3CCCNC3)nc2)on1 [Example 797, (R)-5-(3-methylisoxazol-5-yl)-N-(3-methylthieno[3,2-c]pyridin-4-yl)-N-(piperidin-3-yl)picolinamide]",170
14,"Cc1cccc2ccnc(N(C(=O)c3cccc(C#CCCN4C(=O)c5ccccc5C4=O)c3)[C@@H]3CCCNC3)c12 [Example 588, (R)-3-(4-(1,3-dioxoisoindolin-2-yl)but-1-yn-1-yl)-N-(8-methylisoquinolin-1-yl)-N-(piperidin-3-yl)benzamide]",790
15,"CC(C)(O)C#Cc1ccc2c(N(C(=O)c3ccc(-n4nnc5cccnc54)cc3F)[C@@H]3CCCNC3)nccc2c1 [Example 586, (R)-4-(3H-[1,2,3]triazolo[4,5-b]pyridin-3-yl)-2-fluoro-N-(6-(3-hydroxy-3-methylbut-1-yn-1-yl)isoquinolin-1-yl)-N-(piperidin-3-yl)benzamide]",310
16,"Cc1noc(-c2ccc(C(=O)N(c3nccc4cc(Cl)cc(C)c34)[C@@H]3CCCNC3)cc2)n1 [Example 773, (R)—N-(6-chloro-8-methylisoquinolin-1-yl)-4-(3-methyl-1,2,4-oxadiazol-5-yl)-N-(piperidin-3-yl)benzamide]",190
17,"CC(C)NS(=O)(=O)c1ccc(-c2cc3c(N(C(=O)c4ccc(-c5cn(C)nn5)cc4F)[C@@H]4CCCNC4)nccc3s2)cc1 [Example 537, 2-fluoro-N-[2-[4-(isopropylsulfamoyl)phenyl]thieno[3,2-c]pyridin-4-yl]-4-(1-methyltriazol-4-yl)-N-[(3R)-3-piperidyl]benzamide]",1600

# Stronger by IC50, values ahead:
row,IC50 [nM],Structure (SMILES)
1,120,"Cc1cccc2ccnc(N(C(=O)c3ccc(Nc4nccc(NCc5ccccc5)n4)cc3F)[C@@H]3CCCNC3)c12 [Example 786, (R)-4-((4-(benzylamino)pyrimidin-2-yl)amino)-2-fluoro-N-(8-methylisoquinolin-1-yl)-N-(piperidin-3-yl) benzamide]"
2,110,"NC(=O)Cc1cccc(-c2cc3c(N(C(=O)c4ccc(-n5nnc6cccnc65)cc4F)[C@@H]4CCCNC4)nccc3s2)c1 [Example 447, N-[2-[3-(2-amino-2-oxo-ethyl)phenyl]thieno[3,2-c]pyridin-4-yl]-2-fluoro-N-[(3R)-3-piperidyl]-4-(triazolo[4,5-b]pyridin-3-yl)benzamide]"
3,110,"O=C(c1ccc(-n2nnc3cccnc32)cc1F)N(c1nccc2cc(-c3ccncc3)sc12)[C@@H]1CCCNC1 [Example 384, 2-fluoro-N-[(3R)-3-piperidyl]-N-[2-(4-pyridyl)thieno[2,3-c]pyridin-7-yl]-4-(triazolo[4,5-b]pyridin-3-yl)benzamide]"
4,110,"Cc1nnc(-c2ccc(C(=O)N(c3nccc4cc(Cl)cc(C)c34)[C@@H]3CCCNC3)cn2)o1 [Example 917, N-(6-chloro-8-methyl-1-isoquinolyl)-6-(5-methyl-1,3,4-oxadiazol-2-yl)-N-[(3R)-3-piperidyl]pyridine-3-carboxamide]"
5,89,"NC(=O)c1cc(-c2cc3c(N(C(=O)c4ccc(-n5nnc6cccnc65)cc4F)[C@@H]4CCCNC4)nccc3s2)cs1 [Example 568, 4-[4-[[2-fluoro-4-(triazolo[4,5-b]pyridin-3-yl)benzoyl]-[(3R)-3-piperidyl]amino]thieno[3,2-c]pyridin-2-yl]thiophene-2-carboxamide]"
6,85,"Cc1cccnc1N(C(=O)c1ccc(Nc2ncccn2)cc1)[C@@H]1CCCNC1 [Example 924, (R)—N-(3-methylpyridin-2-yl)-N-(piperidin-3-yl)-4-(pyrimidin-2-ylamino)benzamide]"
7,82,"Cc1cc(-c2ccc(C(=O)N(c3nccc4cccc(C)c34)[C@@H]3CCCNC3)c(F)c2)on1 [Example 316, (R)-2-fluoro-N-(8-methylisoquinolin-1-yl)-4-(3-methylisoxazol-5-yl)-N-(piperidin-3-yl) benzamide]"
8,70,"CCc1nnc(-c2ccc(C(=O)N(c3nccc4cccc(C)c34)[C@@H]3CCCNC3)cn2)s1 [Example 900, 6-(5-ethyl-1,3,4-thiadiazol-2-yl)-N-(8-methyl-1-isoquinolyl)-N-[(3R)-3-piperidyl] pyridine-3-carboxamide]"
9,51,"Cc1cc(Cl)cc2ccnc(N(C(=O)c3ccc(-c4cn(C)nn4)cn3)[C@@H]3CCCNC3)c12 [Example 812, (R)—N-(6-chloro-8-methylisoquinolin-1-yl)-5-(1-methyl-1H-1,2,3-triazol-4-yl)-N-(piperidin-3-yl)picolinamide]"
10,50,"Cc1cccc2ccnc(N(C(=O)c3ccc(-c4cncs4)cc3F)[C@@H]3CCCNC3)c12 [Example 314, (R)-2-fluoro-N-(8-methylisoquinolin-1-yl)-N-(piperidin-3-yl)-4-(thiazol-5-yl) benzamide]"
11,45,"COCCc1nnc(-c2ccc(C(=O)N(c3nccc4cc(C)cc(C)c34)[C@@H]3CCCNC3)cn2)s1 [Example 903, N-(6,8-dimethyl-1-isoquinolyl)-6-[5-(2-methoxyethyl)-1,3,4-thiadiazol-2-yl]-N-[(3R)-3-piperidyl]pyridine-3-carboxamide]"
12,40,"Cc1cccc2ccnc(N(C(=O)c3ccc(Nc4nccc(CN5CCCCC5)n4)cc3F)[C@@H]3CCCNC3)c12 [Example 687, (R)-2-fluoro-N-(8-methylisoquinolin-1-yl)-4-((4-(piperidin-1-ylmethyl)pyrimidin-2-yl)amino)-N-(piperidin-3-yl)benzamide]"
13,23,"Cc1cccc2ccnc(N(C(=O)c3ccc(N4CCOCC4)cc3F)[C@@H]3CCCNC3)c12 [Example 311, (R)-2-fluoro-N-(8-methylisoquinolin-1-yl)-4-morpholino-N-(piperidin-3-yl)benzamide]"
14,16,"Cc1cc(F)cc2ccnc(N(C(=O)c3ccc(-c4cn(C)nn4)cc3)[C@@H]3CCCNC3)c12 [Example 614, (R)—N-(6-fluoro-8-methylisoquinolin-1-yl)-4-(1-methyl-1H-1,2,3-triazol-4-yl)-N-(piperidin-3-yl)benzamide]"

# Reference: patent publication US20240400555A1 (Initial Therapeutics, Inc., priority 2023, published 2024)
